Experimental findings from ChEMBL document CHEMBL1132510, “[35S]S-[5-(4-benzoylphenyl)pentyl]glutathione: a versatile radioligand targeting GS-X pumps with the ability of photoaffinity labeling” (Bioorg Med Chem Lett, 1999) are described below.

Assay [1] relates to HL-60. Kind of assay: Compound was evaluated for the competitive inhibition of the MRP1/GS-X pump mediated transport of LTC4 in the cisplatin-resistant human leukemia HL-60 (HL-60/R-CP) cells. The assay is classed as functional, cell-based.
For assay [2], the system named is HL-60. Kind of assay: Inhibitory activity against MRP1/GS-X pump mediated transport of delta7-PGA1 methyl ester glutathione conjugate in the cisplatin-resistant human leukemia HL-60 (HL-60/R-CP) cells. In kind it is functional, cell-based.

Broadly, the IC50 is the concentration at which inhibition is half-maximal. A lower IC50 goes with higher potency. Take `N[C@@H](CCC(=O)N[C@@H](CSCCCCCc1ccc(C(=O)c2ccccc2)cc1)C(=O)NCC(=O)O)C(=O)O`: the IC50 with HL-60 [1] was 400 nM; in the assay on HL-60 [2], 520 nM.
